Source: ChEMBL document CHEMBL3352817, “Syntheses of coumarin-tacrine hybrids as dual-site acetylcholinesterase inhibitors and their activity against butylcholinesterase, Aβ aggregation, and β-secretase” (Bioorg Med Chem, 2014)

Assays:
[1] = target: Acetylcholinesterase (Homo sapiens, UniProt P22303)
Description: Inhibition of human AChE assessed as acetylthiocholine hydrolysis

[2] = target: Cholinesterase (Homo sapiens, UniProt P06276)
Description: Inhibition of human BChE assessed as acetylthiocholine hydrolysis

[3] = target: Amyloid-beta precursor protein (Homo sapiens, UniProt P05067)
Description: Inhibition of self mediated amyloid beta (1 to 42) aggregation (unknown origin) after 10 hrs by ThT-based fluorescence assay

[4] = target: Beta-secretase 1 (Homo sapiens, UniProt P56817)
Beta-secretase 1, sequence (P56817 whole entry): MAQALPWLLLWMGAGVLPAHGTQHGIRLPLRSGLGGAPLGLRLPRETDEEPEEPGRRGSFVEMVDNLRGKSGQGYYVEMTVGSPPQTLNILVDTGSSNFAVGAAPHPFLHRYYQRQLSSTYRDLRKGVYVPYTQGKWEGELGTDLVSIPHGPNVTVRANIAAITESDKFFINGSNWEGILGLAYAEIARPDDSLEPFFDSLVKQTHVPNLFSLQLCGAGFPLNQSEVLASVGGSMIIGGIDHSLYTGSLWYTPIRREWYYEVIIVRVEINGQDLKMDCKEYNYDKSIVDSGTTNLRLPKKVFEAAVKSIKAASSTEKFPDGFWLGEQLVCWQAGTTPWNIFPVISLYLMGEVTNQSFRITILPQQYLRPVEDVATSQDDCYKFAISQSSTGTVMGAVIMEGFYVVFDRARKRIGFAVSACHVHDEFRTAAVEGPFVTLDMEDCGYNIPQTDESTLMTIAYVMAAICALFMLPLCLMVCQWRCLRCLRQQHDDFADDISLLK

Acetylcholinesterase, sequence (P22303 whole entry): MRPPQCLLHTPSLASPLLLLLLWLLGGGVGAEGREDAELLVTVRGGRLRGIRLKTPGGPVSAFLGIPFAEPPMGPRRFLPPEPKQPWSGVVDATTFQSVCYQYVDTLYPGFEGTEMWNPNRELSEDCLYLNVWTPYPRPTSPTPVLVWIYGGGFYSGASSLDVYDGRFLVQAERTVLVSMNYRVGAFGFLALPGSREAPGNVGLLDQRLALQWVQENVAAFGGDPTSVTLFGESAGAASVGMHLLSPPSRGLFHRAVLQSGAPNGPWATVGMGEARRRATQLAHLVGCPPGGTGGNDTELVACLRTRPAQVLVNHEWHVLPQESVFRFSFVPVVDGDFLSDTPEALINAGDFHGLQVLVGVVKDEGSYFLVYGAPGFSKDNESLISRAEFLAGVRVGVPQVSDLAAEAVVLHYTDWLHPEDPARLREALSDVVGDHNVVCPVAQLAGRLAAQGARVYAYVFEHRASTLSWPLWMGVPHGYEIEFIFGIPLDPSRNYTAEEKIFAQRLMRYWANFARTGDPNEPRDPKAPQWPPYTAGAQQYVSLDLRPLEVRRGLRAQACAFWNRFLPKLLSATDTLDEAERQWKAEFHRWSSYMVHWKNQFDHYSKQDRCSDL
Cholinesterase, sequence (P06276 whole entry): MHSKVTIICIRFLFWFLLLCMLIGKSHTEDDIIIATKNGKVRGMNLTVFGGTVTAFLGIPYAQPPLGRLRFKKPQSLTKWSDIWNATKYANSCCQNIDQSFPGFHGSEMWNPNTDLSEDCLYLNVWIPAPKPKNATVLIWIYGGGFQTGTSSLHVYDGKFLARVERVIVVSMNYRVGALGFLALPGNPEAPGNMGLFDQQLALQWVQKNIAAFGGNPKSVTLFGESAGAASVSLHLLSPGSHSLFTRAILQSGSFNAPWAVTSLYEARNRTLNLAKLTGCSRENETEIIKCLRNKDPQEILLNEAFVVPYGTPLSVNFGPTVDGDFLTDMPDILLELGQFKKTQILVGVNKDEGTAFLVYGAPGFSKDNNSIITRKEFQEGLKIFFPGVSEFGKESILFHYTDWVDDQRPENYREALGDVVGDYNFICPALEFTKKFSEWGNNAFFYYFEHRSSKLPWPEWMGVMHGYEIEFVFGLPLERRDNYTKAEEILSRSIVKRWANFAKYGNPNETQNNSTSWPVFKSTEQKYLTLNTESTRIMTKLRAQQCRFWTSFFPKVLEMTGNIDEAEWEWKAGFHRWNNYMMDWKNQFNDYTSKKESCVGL
Amyloid-beta precursor protein, sequence (P05067 whole entry): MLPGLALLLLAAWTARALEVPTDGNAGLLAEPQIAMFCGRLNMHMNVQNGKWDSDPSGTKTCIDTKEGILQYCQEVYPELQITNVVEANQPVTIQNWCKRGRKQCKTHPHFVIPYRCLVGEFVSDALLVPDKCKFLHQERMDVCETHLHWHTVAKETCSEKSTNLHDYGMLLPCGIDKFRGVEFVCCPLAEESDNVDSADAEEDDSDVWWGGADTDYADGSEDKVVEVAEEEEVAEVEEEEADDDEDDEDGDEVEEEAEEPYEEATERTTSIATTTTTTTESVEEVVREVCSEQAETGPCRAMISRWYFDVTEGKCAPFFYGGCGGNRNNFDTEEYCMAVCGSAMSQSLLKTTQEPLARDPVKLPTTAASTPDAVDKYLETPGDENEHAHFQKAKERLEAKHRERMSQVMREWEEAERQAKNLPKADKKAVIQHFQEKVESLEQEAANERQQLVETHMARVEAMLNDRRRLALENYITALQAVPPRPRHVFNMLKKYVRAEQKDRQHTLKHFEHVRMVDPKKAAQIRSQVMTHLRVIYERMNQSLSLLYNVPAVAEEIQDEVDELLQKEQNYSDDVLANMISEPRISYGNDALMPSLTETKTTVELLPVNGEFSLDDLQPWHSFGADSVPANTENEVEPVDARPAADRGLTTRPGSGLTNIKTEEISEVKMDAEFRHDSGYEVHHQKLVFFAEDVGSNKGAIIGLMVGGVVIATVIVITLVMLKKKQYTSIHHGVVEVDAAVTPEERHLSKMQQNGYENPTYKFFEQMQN

| Compound | Ki [1] [nM] | Ki [2] [nM] | IC50 [3] [nM] | IC50 [4] [nM] |
| --- | --- | --- | --- | --- |
| COc1ccc2cc(C(=O)NCCCCCCCNc3c4c(nc5ccccc35)CCCC4)c(=O)oc2c1 | 55.2 | 35 | – | – |
| O=C(NCCCCCNc1c2c(nc3ccccc13)CCCC2)c1cc2cc(OC(F)(F)F)ccc2oc1=O | 76.1 | 32.5 | – | – |
| COc1ccc2cc(C(=O)NCCCCCNc3c4c(nc5ccccc35)CCCC4)c(=O)oc2c1 | 44.3 | 29.8 | – | – |
| COc1cc2cc(C(=O)NCCCCCCCNc3c4c(nc5ccccc35)CCCC4)c(=O)oc2cc1OC | 91.1 | 37.5 | – | – |
| O=C(NCCCCCCCNc1c2c(nc3ccccc13)CCCC2)c1cc2ccccc2oc1=O | 42.2 | 20 | – | – |
| COc1ccc2oc(=O)c(C(=O)NCCCCCCCNc3c4c(nc5ccccc35)CCCC4)cc2c1 | 50.7 | 34.5 | 13400 | 20200 |
| COc1ccc2cc(C(=O)NCCCCCCNc3c4c(nc5ccccc35)CCCC4)c(=O)oc2c1 | 30.9 | 20.2 | – | – |
| COc1cc2cc(C(=O)NCCCCCCNc3c4c(nc5ccccc35)CCCC4)c(=O)oc2cc1OC | 56.1 | 31.2 | – | – |
| COc1ccc2oc(=O)c(C(=O)NCCCCCNc3c4c(nc5ccccc35)CCCC4)cc2c1 | 39.4 | 34 | – | – |
| O=C(NCCCCCCNc1c2c(nc3ccccc13)CCCC2)c1cc2ccccc2oc1=O | 16.7 | 16.1 | > 100000 | 17200 |
| Cc1ccc2oc(=O)c(C(=O)NCCCCCCNc3c4c(nc5ccccc35)CCCC4)cc2c1 | 30.1 | 23.2 | 5000 | > 100000 |
| Cc1ccc2oc(=O)c(C(=O)NCCCCCNc3c4c(nc5ccccc35)CCCC4)cc2c1 | 35.8 | 32.4 | – | – |
| COc1cc2cc(C(=O)NCCCCCNc3c4c(nc5ccccc35)CCCC4)c(=O)oc2cc1OC | 70 | 8.1 | – | – |
| O=C(NCCCCCCCNc1c2c(nc3ccccc13)CCCC2)c1cc2cc(OC(F)(F)F)ccc2oc1=O | 78.2 | 40 | – | – |
| Cc1ccc2oc(=O)c(C(=O)NCCCCCCCNc3c4c(nc5ccccc35)CCCC4)cc2c1 | 66.1 | 50.9 | 6100 | 42800 |
| O=C(NCCCCCCNc1c2c(nc3ccccc13)CCCC2)c1cc2cc(OC(F)(F)F)ccc2oc1=O | 59.6 | 17.5 | 24200 | 22600 |
| O=C(NCCCCCNc1c2c(nc3ccccc13)CCCC2)c1cc2ccccc2oc1=O | 34.4 | 31.7 | > 100000 | 40100 |
| COc1ccc2oc(=O)c(C(=O)NCCCCCCNc3c4c(nc5ccccc35)CCCC4)cc2c1 | 24.3 | 23.7 | – | – |
